This is an account of results in patent publication US8802720B2, “Acylamino-substituted fused cyclopentanecarboxylic acid derivatives and their use as pharmaceuticals” (SANOFI, priority 2008, dated 2014).

pIC50: −log10 of the molar value.

The target of this assay is human Edg-2 receptor (LPA1 receptor) (Homo sapiens, UniProt Q92633). As to the kind of experiment: Edg-2 receptor inhibition by FLIPR calcium fluorescence measurement (LPA-mediated calcium liberation). The format is cell-based. As to conditions: CHO cells stably overexpressing human Edg-2 receptor; LPA 18:1 100 nM; fluo-4 fluorescence; triplicate; read-out: Inhibitory concentrations IC50 for inhibition of the Edg-2 receptor. An outline of the steps: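 CHO cells stably overexpressing human Edg-2 were fluo-4 loaded and pre-incubated ~5 min with compound (≤0.3% DMSO) in HBSS/HEPES/probenecid, pH 7.5. Then LPA 18:1 at 100 nM final was added. Peak calcium fluorescence over ~3 min, baseline-corrected versus DMSO, gave % inhibition in triplicate and IC50.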
Chain of human Edg-2 receptor (LPA1 receptor) (Q92633 whole entry): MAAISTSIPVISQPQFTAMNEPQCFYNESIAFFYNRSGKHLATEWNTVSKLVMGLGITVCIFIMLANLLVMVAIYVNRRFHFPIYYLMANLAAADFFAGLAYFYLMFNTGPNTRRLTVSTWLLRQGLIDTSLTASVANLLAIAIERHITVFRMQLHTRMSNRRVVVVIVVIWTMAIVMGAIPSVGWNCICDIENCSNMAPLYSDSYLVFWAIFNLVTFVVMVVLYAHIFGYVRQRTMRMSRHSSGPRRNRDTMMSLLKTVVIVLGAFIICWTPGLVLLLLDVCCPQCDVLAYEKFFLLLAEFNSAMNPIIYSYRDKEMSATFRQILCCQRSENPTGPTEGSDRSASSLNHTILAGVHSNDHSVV
`Cc1cccc(CCOc2cccc(C(=O)NC3(C(=O)O)Cc4ccccc4C3)c2)c1` [Example 141]: the pIC50 is 4.52 to 6.00.
The result for `COc1ccc(C(=O)NC2(C(=O)O)Cc3ccccc3C2)cc1OC(C)Cc1ccccc1` (stereo not drawn) [Example 142] reads 4.52 to 6.00; that for `COc1ccc(C(=O)NC2(C(=O)O)Cc3ccccc3C2)cc1OCCc1cccc(Br)c1` [Example 143], greater than 7.00.
Consider `COc1ccc(C(=O)NC2(C(=O)O)Cc3ccccc3C2)cc1OCC(C)c1ccccc1` (stereo not drawn) [Example 144], for which the pIC50 was greater than 7.00.
The result for `Cc1cccc(CCOc2cc(C(=O)NC3(C(=O)O)Cc4ccccc4C3)ccc2F)c1` [Example 145] reads 6.00 to 7.00.
As for `COc1ccc(C(=O)NC2(C(=O)O)Cc3ccccc3C2)cc1OCCc1ccsc1` [Example 146], the pIC50 is 6.00 to 7.00.
The result for `COc1ccc(C(=O)NC2(C(=O)O)Cc3ccccc3C2)cc1OCCc1cccs1` [Example 147] reads 6.00 to 7.00; that for `COc1ccc(C(=O)NC2(C(=O)O)Cc3ccccc3C2)cc1OCCc1ccccn1` [Example 148], 4.52 to 6.00.
The result for `COc1ccc(C(=O)NC2(C(=O)O)Cc3ccccc3C2)cc1OCCc1ccccc1Cl` [Example 149] reads greater than 7.00; that for `COc1ccc(C(=O)NC2(C(=O)O)Cc3ccccc3C2)cc1OCCC1CCCC1` [Example 150], 4.52 to 6.00; that for `COc1ccc(C(=O)NC2(C(=O)O)Cc3ccccc3C2)cc1OCCCc1ccccc1` [Example 151], 4.52 to 6.00.
The result for `COc1ccc(C(=O)NC2(C(=O)O)Cc3ccccc3C2)cc1OCCc1c(F)cccc1Cl` [Example 152] reads greater than 7.00; that for `COc1ccc(C(=O)NC2(C(=O)O)Cc3ccccc3C2)cc1OCCc1cccc(Cl)c1F` [Example 153], 6.00 to 7.00; that for `COc1ccc(C(=O)NC2(C(=O)O)Cc3ccccc3C2)cc1OCCc1cc(C(F)(F)F)ccc1F` [Example 154], greater than 7.00.
For the compound `COc1ccc(C(=O)NC2(C(=O)O)Cc3ccccc3C2)cc1OCCc1cccc(C(F)(F)F)c1F` [Example 155], the pIC50 was 4.52 to 6.00.
The result for `COc1ccc(C(=O)NC2(C(=O)O)Cc3ccc(Br)cc3C2)cc1OCCc1cccc(C)c1` (stereo not drawn) [Example 156, 5-Bromo-2-[4-methoxy-3-(2-m-tolyl-ethoxy)-benzoylamino]-indane-2-carboxylic acid] reads greater than 7.00.
Consider `COc1ccc(C(=O)NC2(C(=O)O)Cc3ccc(F)cc3C2)cc1OCCc1cccc(C)c1` (stereo not drawn) [Example 157, 5-Fluoro-2-[4-methoxy-3-(2-m-tolyl-ethoxy)-benzoylamino]-indane-2-carboxylic acid], for which the pIC50 was greater than 7.00.
The result for `COc1ccc(C(=O)NC2(C(=O)O)Cc3cc(C)c(C)cc3C2)cc1OCCc1cccc(C)c1` [Example 158, 2-[4-Methoxy-3-(2-m-tolyl-ethoxy)-benzoylamino]-5,6-dimethyl-indane-2-carboxylic acid] reads 6.00 to 7.00; that for `COc1ccc2c(c1)CC(NC(=O)c1ccc(OC)c(OCCc3cccc(C)c3)c1)(C(=O)O)C2` (stereo not drawn) [Example 159, 5-Methoxy-2-[4-methoxy-3-(2-m-tolyl-ethoxy)-benzoylamino]-indane-2-carboxylic acid], greater than 7.00.
The result for `COc1cc(C(=O)NC2(C(=O)O)Cc3ccccc3C2)ccc1OCCc1cccc(Cl)c1` [Example 161, 2-{4-[2-(3-Chloro-phenyl)-ethoxy]-3-methoxy-benzoylamino}-indane-2-carboxylic acid] reads 4.52 to 6.00; that for `COc1cc(C(=O)NC2(C(=O)O)Cc3ccccc3C2)ccc1OCCc1ccccc1Cl` [Example 162, 2-{4-[2-(2-Chloro-phenyl)-ethoxy]-3-methoxy-benzoylamino}-indane-2-carboxylic acid], 4.52 to 6.00; that for `Cc1cccc(CCOc2cc(C(=O)NC3(C(=O)O)Cc4ccccc4C3)ccc2N)c1` [Example 163, 2-[4-Amino-3-(2-m-tolyl-ethoxy)-benzoylamino]-indane-2-carboxylic acid], 6.00 to 7.00.
Turning to `CNc1ccc(C(=O)NC2(C(=O)O)Cc3ccccc3C2)cc1OCCc1cccc(C)c1` [Example 164, 2-[4-Methylamino-3-(2-m-tolyl-ethoxy)-benzoylamino]-indane-2-carboxylic acid], the pIC50 was greater than 7.00.
With `Cc1cccc(CCOc2cc(C(=O)NC3(C(=O)O)Cc4ccccc4C3)ccc2N(C)C)c1` [Example 165, 2-[4-Dimethylamino-3-(2-m-tolyl-ethoxy)-benzoylamino]-indane-2-carboxylic acid], the pIC50 is 6.00 to 7.00.
The result for `Cc1cccc(CCOc2cc(C(=O)NC3(C(=O)O)Cc4ccccc4C3)ccc2NC(C)C)c1` [Example 166, 2-[4-Isopropylamino-3-(2-m-tolyl-ethoxy)-benzoylamino]-indane-2-carboxylic acid] reads 6.00 to 7.00; that for `COc1ccc(C(=O)NC2(C(=O)O)Cc3ccccc3C2)cc1OCC(O)c1ccccc1F` (stereo not drawn) [Example 167, 2-{3-[2-(2-Fluoro-phenyl)-2-hydroxy-ethoxy]-4-methoxy-benzoylamino}-indane-2-carboxylic acid], 4.52 to 6.00.
The result for `Cc1cccc(CCOc2cc(C(=O)NC3(C(=O)O)Cc4ccccc4C3)ccc2C#N)c1` [Example 168, 2-[4-Cyano-3-(2-m-tolyl-ethoxy)-benzoylamino]-indane-2-carboxylic acid] reads greater than 7.00; that for `COc1ccc(C(=O)NC2(C(=O)O)Cc3ccccc3C2)cc1CCCc1ccccc1` [Example 169, 2-[4-Methoxy-3-(3-phenyl-propyl)-benzoylamino]-indane-2-carboxylic acid], 6.00 to 7.00; that for `COc1ccc(C(=O)NC2(C(=O)O)Cc3ccccc3C2)cc1NCCc1cccc(C)c1` [Example 171, 2-[4-Methoxy-3-(2-m-tolyl-ethylamino)-benzoylamino]-indane-2-carboxylic acid], greater than 7.00.
As for `COc1ccc(C(=O)NC2(C(=O)O)Cc3ccccc3C2)cc1N(C)CCc1cccc(C)c1` [Example 172, 2-{4-Methoxy-3-[methyl-(2-m-tolyl-ethyl)-amino]-benzoylamino}-indane-2-carboxylic acid], the pIC50 is 4.52 to 6.00.
For the compound `Cc1cccc(CCNc2cc(C(=O)NC3(C(=O)O)Cc4ccccc4C3)ccc2C#N)c1` [Example 173, 2-[4-Cyano-3-(2-m-tolyl-ethylamino)-benzoylamino]-indane-2-carboxylic acid], the pIC50 is 4.52 to 6.00.
Turning to `N#Cc1ccc(C(=O)NC2(C(=O)O)Cc3ccccc3C2)cc1N1CCC(c2ccccc2)C1` (stereo not drawn) [Example 174, 2-[4-Cyano-3-[3-phenyl-pyrrolidin-1-yl)-benzoylamino]-indane-2-carboxylic acid], the pIC50 was 4.52 to 6.00.
The result for `N#Cc1ccc(C(=O)NC2(C(=O)O)Cc3ccccc3C2)cc1NCCc1ccccc1F` [Example 175, 2-{4-Cyano-3-[2-(2-fluoro-phenyl)-ethylamino]-benzoylamino}-indane-2-carboxylic acid] reads 4.52 to 6.00.
The result for `Cc1ccc(C(=O)NC2(C(=O)O)Cc3ccccc3C2)cc1OCCc1cccc(Cl)c1` [Example 176, 2-{3-[2-(3-Chloro-phenyl)-ethoxy]-4-methyl-benzoylamino}-indane-2-carboxylic acid] reads greater than 7.00.
The result for `Cc1ccc(C(=O)NC2(C(=O)O)Cc3ccccc3C2)cc1OCCc1ccccc1F` [Example 177, 2-{3-[2-(2-Fluoro-phenyl)-ethoxy]-4-methyl-benzoylamino}-indane-2-carboxylic acid] reads 6.00 to 7.00; that for `CCOc1ccc(C(=O)NC2(C(=O)O)Cc3ccccc3C2)cc1NCCc1cccc(C)c1` [Example 178, 2-[4-Ethoxy-3-(2-m-tolyl-ethylamino)-benzoylamino]-indane-2-carboxylic acid], 4.52 to 6.00.
With `Cc1cccc(CCNc2cc(C(=O)NC3(C(=O)O)Cc4ccccc4C3)ccc2O)c1` [Example 179, 2-[4-Hydroxy-3-(2-m-tolyl-ethylamino)-benzoylamino]-indane-2-carboxylic acid], the pIC50 is 6.00 to 7.00.
As for `COc1ccc(C(=O)NC2(C(=O)O)Cc3ccccc3C2)cc1SCCc1cccc(C)c1` [Example 180, 2-[4-Methoxy-3-(2-m-tolyl-ethylsulfanyl)-benzoylamino]-indane-2-carboxylic acid], the pIC50 is greater than 7.00.
The result for `COc1ccc(C(=O)NC2(C(=O)O)Cc3ccccc3C2)cc1SCCc1cccc(Cl)c1` [Example 181, 2-{3-[2-(3-Chloro-phenyl)-ethylsulfanyl]-4-methoxy-benzoylamino}-indane-2-carboxylic acid] reads greater than 7.00.
On to `COc1ccc(C(=O)NC2(C(=O)O)Cc3ccccc3C2)cc1SCc1ccccc1` [Example 182, 2-(3-Benzylsulfanyl-4-methoxy-benzoylamino)-indane-2-carboxylic acid], for which the pIC50 was 4.52 to 6.00.
The result for `COc1ccc(C(=O)NC2(C(=O)O)Cc3ccccc3C2)cc1S(=O)(=O)CCc1cccc(C)c1` [Example 183, 2-[4-Methoxy-3-(2-m-tolyl-ethanesulfonyl)-benzoylamino]-indane-2-carboxylic acid] reads 4.52 to 6.00; that for `COc1ccc(C(=O)NC2(C(=O)O)Cc3ccccc3C2)cc1S(=O)(=O)CCc1cccc(Cl)c1` [Example 184, 2-{3-[2-(3-Chloro-phenyl)-ethanesulfonyl]-4-methoxy-benzoylamino}-indane-2-carboxylic acid], 4.52 to 6.00.
The result for `Cc1cccc(CCOc2cc(C(=O)NC3(C(=O)O)Cc4ccccc4C3)ccc2C(F)(F)F)c1` [Example 185, 2-[3-(2-m-Tolyl-ethoxy)-4-trifluoromethyl-benzoylamino]-indane-2-carboxylic acid] reads greater than 7.00; that for `O=C(NC1(C(=O)O)Cc2ccccc2C1)c1ccc(C(F)(F)F)c(OCCc2cccc(Cl)c2)c1` [Example 186, 2-{3-[2-(3-chloro-phenyl)-ethoxy]-4-trifluoromethyl-benzoylamino}-indane-2-carboxylic acid], greater than 7.00.
The result for `O=C(NC1(C(=O)O)Cc2ccccc2C1)c1ccc(C(F)(F)F)c(OCCc2c(F)cccc2Cl)c1` [Example 187] reads greater than 7.00.
